O=C(O)CCCCCCCC(=O)O
solubility (mole fraction) (in acetic acid, 289.05 K): 0.022 | solubility (mole fraction) (in acetic acid, 293.95 K): 0.0279 | solubility (mole fraction) (in acetic acid, 298.85 K): 0.0355 | solubility (mole fraction) (in acetic acid, 303.45 K): 0.0452 | solubility (mole fraction) (in acetic acid, 308.35 K): 0.0582 | solubility (mole fraction) (in acetic acid, 313.35 K): 0.0746 | solubility (mole fraction) (in acetic acid, 318.85 K): 0.0964 | solubility (mole fraction) (in acetic acid, 325.35 K): 0.132 | solubility (mole fraction) (in acetic acid, 330.95 K): 0.169 | solubility (mole fraction) (in acetic acid, 337.35 K): 0.223 | solubility (mole fraction) (in acetic acid, 341.75 K): 0.265 | solubility (mole fraction) (in acetone, 276.65 K): 0.00895 | solubility (mole fraction) (in acetone, 279.45 K): 0.0103 | solubility (mole fraction) (in acetone, 283.15 K): 0.0129 | solubility (mole fraction) (in acetone, 286.95 K): 0.0158 | solubility (mole fraction) (in acetone, 294.15 K): 0.0228 | solubility (mole fraction) (in acetone, 297.55 K): 0.0275 | solubility (mole fraction) (in acetone, 303.05 K): 0.0365 | solubility (mole fraction) (in acetone, 306.55 K): 0.0438 | solubility (mole fraction) (in acetone, 312.05 K): 0.0587 | solubility (mole fraction) (in acetone, 316.15 K): 0.0732 | solubility (mole fraction) (in acetone, 320.95 K): 0.1 | solubility (mole fraction) (in acetone, 325.35 K): 0.12 | solubility (mole fraction) (in ethanol, 276.75 K): 0.0212 | solubility (mole fraction) (in ethanol, 280.05 K): 0.0253 | solubility (mole fraction) (in ethanol, 283.25 K): 0.0292 | solubility (mole fraction) (in ethanol, 288.15 K): 0.0362 | solubility (mole fraction) (in ethanol, 293.05 K): 0.0449 | solubility (mole fraction) (in ethanol, 297.55 K): 0.0546 | solubility (mole fraction) (in ethanol, 304.05 K): 0.069 | solubility (mole fraction) (in ethanol, 307.35 K): 0.083 | solubility (mole fraction) (in ethanol, 312.05 K): 0.0969 | solubility (mole fraction) (in ethanol, 317.05 K): 0.117 | solubility (mole fraction) (in ethanol, 322.05 K): 0.143 | solubility (mole fraction) (in ethanol, 326.85 K): 0.166 | solubility (mole fraction) (in ethanol, 332.05 K): 0.202 | solubility (mole fraction) (in ethanol, 336.55 K): 0.234 | solubility (mole fraction) (in ethylene glycol, 278.65 K): 0.0083 | solubility (mole fraction) (in ethylene glycol, 283.35 K): 0.01 | solubility (mole fraction) (in ethylene glycol, 288.05 K): 0.0105 | solubility (mole fraction) (in ethylene glycol, 292.85 K): 0.0144 | solubility (mole fraction) (in ethylene glycol, 297.35 K): 0.0241 | solubility (mole fraction) (in ethylene glycol, 303.35 K): 0.03 | solubility (mole fraction) (in ethylene glycol, 307.35 K): 0.0395 | solubility (mole fraction) (in ethylene glycol, 312.25 K): 0.0496 | solubility (mole fraction) (in ethylene glycol, 317.05 K): 0.0622 | solubility (mole fraction) (in ethylene glycol, 321.55 K): 0.0791 | solubility (mole fraction) (in ethylene glycol, 326.45 K): 0.103 | solubility (mole fraction) (in ethylene glycol, 331.35 K): 0.131 | solubility (mole fraction) (in ethylene glycol, 336.15 K): 0.167
